Like-named read-outs stand apart in the source and are kept apart here.
What was measured:
[1] = tested on: SK-MEL-28; assay: Inhibition of cells growth by colorimetric (SRB) assay, SK-MEL-28; settings: for GI50 / CC50: Homo sapiens, SK-MEL-28, 48 h; for GI50: read-out: MEL-28 GI50, SRB assay, 48 hours exposure; for CC50: read-out: MEL-28 LC50, SRB assay, 48 hours exposure; for MEL-28 TGI: SRB assay, 48 hours exposure
In short: (§1)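 Human tumour cells seeded at 5×10^3/well in RPMI 1640 10% FBS, attached 18 h, then exposed 48 h to samples at 10 to 10^−8 μg/ml in DMSO/EtOH/PBS (0.5:0.5:99). Growth read by SRB staining after TCA fixation, OD 490 nm, triplicate wells; GI, TGI and LC derived.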

[2] = tested on: HT-29; assay: Inhibition of cells growth by colorimetric (SRB) assay, HT-29; settings: for GI50 / CC50: Homo sapiens, HT-29, 48 h
In short: as §1

[3] = tested on: DU-145; assay: Inhibition of cells growth by colorimetric (SRB) assay, DU-145; settings: for GI50 / CC50: Homo sapiens, DU-145, 48 h; for GI50: read-out: DU-145 GI50, SRB assay, 48 hours exposure; for CC50: read-out: DU-145 LC50, SRB assay, 48 hours exposure; for DU-145 TGI: SRB assay, 48 hours exposure
In short: as §1

[4] = tested on: IGROV-ET; assay: Inhibition of cells growth by colorimetric (SRB) assay, IGROV-ET; settings: for GI50 / CC50: Homo sapiens, 48 h; for GI50: read-out: IGROV-ET GI50, SRB assay, 48 hours exposure; for CC50: read-out: IGROV-ET LC50, SRB assay, 48 hours exposure; for IGROV-ET TGI: SRB assay, 48 hours exposure
In short: as §1

[5] = tested on: LoVo-Dox; assay: Inhibition of cells growth by colorimetric (SRB) assay, LoVo-Dox; settings: for GI50 / CC50: Homo sapiens, 48 h; for GI50: read-out: LOVO-DOX GI50, SRB assay, 48 hours exposure; for CC50: read-out: LOVO-DOX LC50, SRB assay, 48 hours exposure; for LOVO-DOX TGI: SRB assay, 48 hours exposure
In short: as §1

[6] = tested on: K-562; assay: Inhibition of cells growth by colorimetric (SRB) assay, K-562; settings: for GI50 / CC50: Homo sapiens, K562, 48 h; for GI50: read-out: K-562 GI50, SRB assay, 48 hours exposure; for CC50: read-out: K-562 LC50, SRB assay, 48 hours exposure; for K-562 TGI: SRB assay, 48 hours exposure
In short: as §1

[7] = tested on: A-549; assay: Inhibition of cells growth by colorimetric (SRB) assay, A-549; settings: for GI50 / CC50: Homo sapiens, A549, 48 h
In short: as §1

[8] = tested on: LoVo; assay: Inhibition of cells growth by colorimetric (SRB) assay, LoVo; settings: for GI50 / CC50: Homo sapiens, LoVo, 48 h; for GI50: read-out: LOVO GI50, SRB assay, 48 hours exposure; for CC50: read-out: LOVO LC50, SRB assay, 48 hours exposure; for LOVO TGI: SRB assay, 48 hours exposure
In short: as §1

[9] = tested on: HeLa; assay: Inhibition of cells growth by colorimetric (SRB) assay, HeLa; settings: for GI50: Homo sapiens, HeLa, 48 h, read-out: HELA GI50, SRB assay, 48 hours exposure; for HELA TGI: SRB assay, 48 hours exposure
From the text: (§2) The finality of these assays is to interrupt the growth of a “in vitro” tumor cell culture by means a continued exhibition of the cells to the sample to be testing.
(§3) This form of the assay employs 96 well cell culture microplates of 9 mm diameter (Faircloth, 1988; Mosmann, 1983). Most of the cell lines are obtained from American Type Culture Collection (ATCC) derived from different human cancer types.
(§4) Cells are maintained in RPMI 1640 10% FBS, supplemented with 0.1 g/l penicillin and 0.1 g/l streptomycin sulphate and then incubated at 37° C., 5% CO2 and 98% humidity. For the experiments, cells were harvested from subconfluent cultures using trypsin and resuspended in fresh medium before plating.
(§5) Cells are seeded in 96 well microtiter plates, at 5×10^3 cells per well in aliquots of 195 μl medium, and they are allowed to attach to the plate surface by growing in drug free medium for 18 hours. Afterward, samples are added in aliquots of 5 μl in a ranging from 10 to 10^−8 μg/ml, dissolved in DMSO/EtOH/PBS (0.5:0.5:99). After 48 hours exposure, the antitumor effect are measured by the SRB methodology: cells are fixed by adding 50 μl of cold 50% (wt/vol) trichloroacetic acid (TCA) and incubating for 60 minutes at 4° C. Plates are washed with deionized water and dried. One hundred μl of SRB solution (0.4% wt/vol in 1% acetic acid) is added to each microtiter well and incubated for 10 minutes at room temperature. Unbound SRB is removed by washing with 1% acetic acid. Plates are air dried and bound stain is solubilized with Tris buffer. Optical densities are read on a automated spectrophotometric plate reader at a single wavelength of 490 nm.
(§6) The values for mean +/−SD of data from triplicate wells are calculated. Some parameters for cellular responses can be calculated: GI=growth inhibition, TGI=total growth inhibition (cytostatic effect) and LC=cell killing (cytotoxic effect).

[10] = tested on: LNCaP; assay: Inhibition of cells growth by colorimetric (SRB) assay, LNCaP; settings: for GI50 / CC50: Homo sapiens, LNCaP, 48 h; for GI50: read-out: LN-caP GI50, SRB assay, 48 hours exposure; for CC50: read-out: LN-caP LC50, SRB assay, 48 hours exposure; for LN-caP TGI: SRB assay, 48 hours exposure
In short: as §1

[11] = tested on: IGROV-1; assay: Inhibition of cells growth by colorimetric (SRB) assay, IGROV-1; settings: for GI50 / CC50: Homo sapiens, IGROV-1, 48 h; for GI50: read-out: IGROV GI50, SRB assay, 48 hours exposure; for CC50: read-out: IGROV LC50, SRB assay, 48 hours exposure; for IGROV TGI: SRB assay, 48 hours exposure
In short: as §1

[12] = tested on: PANC-1; assay: Inhibition of cells growth by colorimetric (SRB) assay, PANC-1; settings: for GI50 / CC50: Homo sapiens, PANC-1, 48 h; for GI50: read-out: PANC-1 GI50, SRB assay, 48 hours exposure; for CC50: read-out: PANC-1 LC50, SRB assay, 48 hours exposure; for PANC-1 TGI: SRB assay, 48 hours exposure
In short: as §1

[13] = tested on: SK-BR-3; assay: Inhibition of cells growth by colorimetric (SRB) assay, SK-BR-3; settings: for GI50 / CC50: Homo sapiens, SK-BR-3, 48 h; for GI50: read-out: SK-BR-3 GI50, SRB assay, 48 hours exposure; for CC50: read-out: SK-BR-3 LC50, SRB assay, 48 hours exposure; for SK-BR-3 TGI: SRB assay, 48 hours exposure
In short: as §1

[14] = tested on: HeLa-APL; assay: Inhibition of cells growth by colorimetric (SRB) assay, HeLa-APL; settings: for GI50 / CC50: Homo sapiens, 48 h; for GI50: read-out: HELA-APL GI50, SRB assay, 48 hours exposure; for CC50: read-out: HELA-APL LC50, SRB assay, 48 hours exposure; for HELA-APL TGI: SRB assay, 48 hours exposure
From the text: as §2, §3, §4, §5, §6

[15] = read-out: HT-29 GI50, SRB assay, 48 hours exposure
[16] = read-out: HT-29 LC50, SRB assay, 48 hours exposure
[17] = read-out: A-549 GI50, SRB assay, 48 hours exposure
[18] = read-out: A-549 LC50, SRB assay, 48 hours exposure

CS(=O)(=O)c1nccc(-c2c3cccnc3n3c(N)nccc23)n1 [Compound 73] was tested, and the GI50 [1] was 5.46 µM, the CC50 [1] was 29.4 µM and the “MEL-28 TGI” value [1] was 2.94E−05. For the same compound, the GI50 ([2]; read-out: GI50 HT-29, SRB assay, 48 hours exposure) was at least 29.4 µM, the GI50 [2, 15] was 14.6 µM and the CC50 [2, 16] was 29.4 µM. For the same compound, the CC50 ([2]; read-out: LC50 HT-29, SRB assay, 48 hours exposure) was at least 147 µM, the “HT-29 TGI” value ([2]; SRB assay, 48 hours exposure) was 2.94E−05 and the “TGI HT-29” value ([2]; SRB assay, 48 hours exposure) was 1.47E−04. The GI50 [3] was 29.4 µM, the CC50 [3] was 29.4 µM and the “DU-145 TGI” value [3] was 2.94E−05. The GI50 [4] was 2.05 µM, the CC50 [4] was 29.4 µM and the “IGROV-ET TGI” value [4] was 2.94E−05. For the same compound, the GI50 [5] was 10.1 µM, the CC50 [5] was 29.4 µM and the “LOVO-DOX TGI” value [5] was 2.94E−05. The GI50 [6] was 13.7 µM, the CC50 [6] was 29.4 µM and the “K-562 TGI” value [6] was 2.94E−05. It also gave a GI50 [7, 17] of 11.3 µM, a CC50 [7, 18] of 29.4 µM and a GI50 ([7]; read-out: GI50 A-549, SRB assay, 48 hours exposure) of 4.41 µM. For the same compound, the CC50 ([7]; read-out: LC50 A-549, SRB assay, 48 hours exposure) was at least 147 µM, the “A-549 TGI” value ([7]; SRB assay, 48 hours exposure) was 2.94E−05 and the “TGI A-549” value ([7]; SRB assay, 48 hours exposure) was 1.47E−04. The GI50 [8] was 14.4 µM, the CC50 [8] was 29.4 µM and the “LOVO TGI” value [8] was 2.94E−05. The GI50 [9] was 0.00896 µM, the “HELA TGI” value [9] was 3.58E−08 and the GI50 [10] was 4.76 µM. For the same compound, the CC50 [10] was 29.4 µM, the “LN-caP TGI” value [10] was 1.51E−05 and the GI50 [11] was 5.41 µM. For the same compound, the CC50 [11] was 29.4 µM, the “IGROV TGI” value [11] was 2.94E−05 and the GI50 [12] was 12.3 µM. The CC50 [12] was 29.4 µM, the “PANC-1 TGI” value [12] was 2.94E−05 and the GI50 [13] was 2.08 µM. For the same compound, the CC50 [13] was 29.4 µM, the “SK-BR-3 TGI” value [13] was 9.37E−06 and the GI50 [14] was 0.013 µM. The CC50 [14] was 7.23 µM and the “HELA-APL TGI” value [14] was 7.23E−08.

With Cl.Nc1nccc(-c2c3c(Cl)ccnc3n3c(N)nccc23)n1 [Compound 83] the GI50 [1] was 1.32 µM, the CC50 [1] was 11.8 µM and the “MEL-28 TGI” value [1] was 3.64E−06. The GI50 [2, 15] was 1.37 µM, the CC50 [2, 16] was 26 µM and the “HT-29 TGI” value ([2]; SRB assay, 48 hours exposure) was 3.90E−06. For the same compound, the GI50 [3] was 0.621 µM, the CC50 [3] was 8.32 µM and the “DU-145 TGI” value [3] was 1.49E−06. For the same compound, the GI50 [4] was 1.08 µM, the CC50 [4] was 26 µM and the “IGROV-ET TGI” value [4] was 2.29E−06. For the same compound, the GI50 [5] was 0.803 µM, the CC50 [5] was 17.8 µM and the “LOVO-DOX TGI” value [5] was 1.72E−06. The GI50 [6] was 2.6 µM, the CC50 [6] was 26 µM and the “K-562 TGI” value [6] was 1.73E−05. The GI50 [7, 17] was 0.757 µM, the CC50 [7, 18] was 8.66 µM and the “A-549 TGI” value ([7]; SRB assay, 48 hours exposure) was 1.57E−06. The GI50 [8] was 0.471 µM, the CC50 [8] was 2.09 µM and the “LOVO TGI” value [8] was 9.90E−07. For the same compound, the GI50 [9] was 0.0478 µM, the “HELA TGI” value [9] was 1.38E−07 and the GI50 [10] was 0.424 µM. For the same compound, the CC50 [10] was 1.52 µM, the “LN-caP TGI” value [10] was 8.03E−07 and the GI50 [11] was 0.998 µM. For the same compound, the CC50 [11] was 26 µM, the “IGROV TGI” value [11] was 3.17E−06 and the GI50 [12] was 1.95 µM. For the same compound, the CC50 [12] was 26 µM, the “PANC-1 TGI” value [12] was 1.07E−05 and the GI50 [13] was 0.575 µM. For the same compound, the CC50 [13] was 1.92 µM, the “SK-BR-3 TGI” value [13] was 1.05E−06 and the GI50 [14] was 0.0478 µM. For the same compound, the CC50 [14] was 0.257 µM and the “HELA-APL TGI” value [14] was 1.11E−07.

From patent US7772241B2, “Variolin derivatives and their use as antitumor agents” (Pharma Mar S.A., priority 2001, dated 2010)
